In test [1] the test system is NF-κB signaling in NB cells. The experiment in a line: Intracellular IκBα in NB population of co-culture (PhosFlow flow cytometry). It counts as cell-based, human. How it is done: Monocytes were directly cultured with wild-type or TNF, TNFR1, TNFR2 KO NB cell lines in ULA plates for 24 hours. Activation of NF-kB in monocytes and NB was measured by flow cytometry and cytokine production measured by ELISA from co-culture supernatant. To evaluate the contact-dependence of monocyte activation by NB, monocytes were cultured in ULA plates with seven-day NB conditioned medium mixed 1:1 with complete monocyte medium for 24 hours and analyzed for IL-6 production. To assess the growth advantage of NB cultured with monocytes, NB-luc cell lines and monocytes were seeded in tissue culture-treated white 96-well plates (1:1 ratio) and cultured for four days. Luminescence was measured using a TECAN Spark plate reader (TECAN). To evaluate changes in proliferation, NB was pulsed for 10 minutes in CellTrace Violet (2 μM, Invitrogen) and seeded at 100,000 cells per well in a 12-well tissue culture-treated plate. Monocytes were added directly to the NB monolayer at a density of 100,000 per well and incubated for four days. CellTrace Violet expression was analyzed by flow cytometry.
To evaluate the expression of TNFα in NB and monocytes, cells were first stimulated with LPS (50 ng/mL) in the presence of GolgiStop (BD Biosciences) and fixed using CytoFix/Cytoperm buffer (BD Biosciences). Cells were then stained with TNFα-PE (BD Biosciences). To evaluate the expression of TNFR1 and TNFR2 on NB and monocytes, cells were stained with TNFR1-BV421 and TNFR2-APC (BD Biosciences) in FACS staining buffer containing 0.05% sodium azide to prevent receptor/antibody processing. To estimate changes in NF-kB expression, treated co-cultures were first stained with ZombieViolet (1 μL/test, Biolegend) to counterstain dead cells and APC-H7 CD45 and/or FITC-CD14 to label monocytes for 20 minutes at room temperature. […] All flow samples were run using an LSRII 5-laser flow cytometer (Texas Children's Hospital Cancer Center Flow Cytometry Core, Houston, Tex.) and analyzed using FlowJo Software (Treestar).
On the technique in general: Flow cytometry measures light scatter and fluorescence of single cells or particles in a stream.

Test [2] deals with cytokines/chemokines in CHLA-255-monocyte co-cultures. Kind of test: Multiplex Luminex cytokine array on co-culture supernatants. It counts as cell-based, human. The conditions noted are these: CHLA-255 + monocytes, 10 μg/mL etanercept, 24 hours.
Test [3] concerns CHLA-255 monolayer and monocytes. The experiment in a line: Adherence of CD14+ monocytes to NB monolayer. The following applies: CHLA-255, 10 μg/mL etanercept, four days. It is filed as cell-based, human. How it is done: Cultures were imaged at 10× magnification using Nikon DS-Fi1/Elements Software. Scale bar 50 μm. (FIG. 26B) CHLA-255 was grown to 25% confluence in 12-well tissue culture plates and overlaid with freshly isolated human monocytes. […] Non-adherent cells were gently washed with PBS before mechanical dissociation to release adherent cells. Adherent CD14+ monocytes were quantified relative to NB from samples run in triplicate. **** p<0.0001;

Test [4] relates to CHLA-255-luc/monocyte xenografts. The experiment in a line: CHLA-255-luc/monocyte subcutaneous xenograft in NSG mice. It counts as in vivo, mouse. An excerpt: (FIG. 16A) In vivo subcutaneous xenograft model. CHLA-255-luc and freshly isolated human monocytes were embedded in Matrigel and injected into the subcutaneous right flank of eight-week female NSG mice. […] (FIG. 16B) Luminescence readings for each mouse (n=10/group) measured in radiance (photons/second/cm2/steradian). (FIG. 16C) Graphical representation of total luminescence per tumor from (FIG. 16B) over time. (FIG. 16D) Mean tumor luminescence over time, two-way ANOVA with Bonferroni multiple comparisons test (n=10 per group). The top line is NB/Mon+Ctrl. (FIG. 16E) Representative tumors for each group following sacrifice at day 21. ** p<0.01;
Six-week old female NOD/SCID/IL-2Ry-null (NSG) mice were purchased from The Jackson Laboratory and maintained at the Baylor College of Medicine (BCM) animal care facility. At eight-weeks of age, mice were injected in the subcutaneous right flank with either 1×106 CHLA-255-luc (or SK-N-AS-luc) or a combination of 1×106 CHLA-255-luc and 1×10^6 human monocytes (or SK-N-AS-luc/monocyte) embedded in growth factor-reduced Matrigel (Corning) as previously described (54). […] Tumor growth was measured indirectly by weekly bioluminescent imaging (Small Animal Imaging Core Facility, Texas Children's Hospital). After three weeks, mice were euthanized and tumors were saved for IHC (see Tumor IHC) and RNA-seq (see RNA Analysis).

Test [5] deals with SK-N-AS-luc/monocyte xenografts. Kind of test: SK-N-AS-luc/monocyte subcutaneous xenograft in NSG mice. It is filed as in vivo, mouse. As for the experimental part:
Luciferase-labeled NB and freshly isolated human monocytes were embedded in Matrigel and injected into the subcutaneous right flank of 8-week female NSG mice. […] (FIG. 9A) Tumor growth was tracked indirectly through luminescence imaging using IVIS Imaging system. (FIG. 9B) Average tumor luminescence of each group over time. After 3 weeks, mice were sacrificed and the tumor size was analyzed directly by weight. The bottom line is NB+Mono+FcTNFR and the top line is NB+Mono+IgG. (FIG. 9C) Representative image of 5 tumors from each group. (FIG. 9D) Tumor weight by group after Log10 transformation of weight (in mg). * p<0.05, ** p<0.01;
(FIG. 27A) SK-N-AS-luc and freshly isolated human monocytes were embedded in matrigel and injected into the subcutaneous right flank of eight-week female NSG mice. […] Representative luminescence images (Ctrl n=7, Etan n=13) measured in radiance (photons/second/cm2/steradian). (FIG. 27B) Graphical representation of total luminescence per tumor from (A) over time. (FIG. 27C) Mean tumor total luminescence over time, two-way ANOVA with Bonferroni multiple comparisons test (Ctrl n=7, Etan n=13); NB/Mon+Ctrl line is on top. (FIG. 27D) Representative tumors for each group following sacrifice at day 21. * p<0.05; […]

[6] abbreviates: 5 mg/kg (100 μg) i.p. bi-weekly, vs IgG control.

Consider 1 substance from patent US20230103554A1, “TNFa SIGNALING [sequence] TUMOR-PROMOTING INFLAMMATION THAT CAN BE TARGETED TO THERAPY” (Baylor College of Medicine, priority 2020, published 2023).

In the case of etanercept, the “reversal of IκBα degradation in NB” value in test [1] (CHLA-255 + monocytes, 10 μg/mL etanercept, 24 hours (FIG. 15D)) is “partial”. In addition, the “IκBα levels in NB cells” value in test [1] (SK-N-AS + monocytes, etanercept, 24 hours) was “restored IκBα levels to the levels found in NB cells cultured alone”. The “induction/upregulation of G-CSF, GM-CSF, IL-1α, IL-1β, IL-6, IL-10, IL-12-p40, IP-10, MIP-1β” value in test [2] is “completely reversed the induction/upregulation of all nine cytokines/chemokines”. Further, the “adherence of CD14+ monocytes to NB monolayer” value in test [3] is “decreased the adherence”. The “reduction of tumor growth (luminescence)” value in test [4] (setting [6]) is recorded as 65%; in test [5] (setting [6]), 30%. In addition, the “macroscopic blood vessel development of treated tumors” value in test [4] (etanercept bi-weekly, vs control tumors) is “appeared to lack blood vessel development”. The growth of tumors entry in test [5] (SK-N-AS + monocytes in Matrigel, 100 μg bi-weekly, vs IgG control (FIG. 9)) was “significantly decreased the growth of tumors”.
